Calls of active or inactive are those of the source. How the calls were made is not given here.
Test system: CCRIS mutagenicity, Ames/micronucleus/aberration tests
Test: CCRIS mutagenicity studies
[1] = Test System: AMES SALMONELLA TYPHIMURIUM, Strain/Indicator: TA100, Metabolic Activation: RAT, INTACT HEPATOCYTES, AROCLOR 1254, Method: PREINCUBATION
[2] = Test System: AMES SALMONELLA TYPHIMURIUM, Strain/Indicator: TA100, Metabolic Activation: RAT, NADPH-FORTIFIED HOMOGENIZED HEPATOCYTES, AROCLOR 1254, Method: PREINCUBATION
[3] = Test System: AMES SALMONELLA TYPHIMURIUM, Strain/Indicator: TA98, Metabolic Activation: NONE, Method: PREINCUBATION

Cc1cccc2cc3ccc4cccc5ccc(c12)c3c45
mutagenic call [1]: inactive; negative
mutagenic call [2]: active; positive

O=[N+]([O-])c1ccc(CNc2ncnc3nc[nH]c23)cc1
mutagenic call (Test System: AMES SALMONELLA TYPHIMURIUM, Strain/Indicator: TA98(1,8-DNP), Metabolic Activation: NONE, Method: PREINCUBATION): inactive; negative
mutagenic call (Test System: AMES SALMONELLA TYPHIMURIUM, Strain/Indicator: TA98(1,8-DNP), Metabolic Activation: RAT, LIVER, S-9, PCB, Method: PREINCUBATION): inactive; negative
mutagenic call (Test System: AMES SALMONELLA TYPHIMURIUM, Strain/Indicator: TA98(NR), Metabolic Activation: NONE, Method: PREINCUBATION): inactive; negative
mutagenic call (Test System: AMES SALMONELLA TYPHIMURIUM, Strain/Indicator: TA98(NR), Metabolic Activation: RAT, LIVER, S-9, PCB, Method: PREINCUBATION): inactive; negative
mutagenic call [3]: inactive; negative
mutagenic call (Test System: AMES SALMONELLA TYPHIMURIUM, Strain/Indicator: TA98, Metabolic Activation: RAT, LIVER, S-9, PCB, Method: PREINCUBATION): inactive; negative
mutagenic call (Test System: AMES SALMONELLA TYPHIMURIUM, Strain/Indicator: TA100(1,8-DNP), Metabolic Activation: NONE, Method: PREINCUBATION): inactive; negative
mutagenic call (Test System: AMES SALMONELLA TYPHIMURIUM, Strain/Indicator: TA100(1,8-DNP), Metabolic Activation: RAT, LIVER, S-9, PCB, Method: PREINCUBATION): inactive; negative
mutagenic call (Test System: AMES SALMONELLA TYPHIMURIUM, Strain/Indicator: TA100(NR), Metabolic Activation: NONE, Method: PREINCUBATION): inactive; negative
mutagenic call (Test System: AMES SALMONELLA TYPHIMURIUM, Strain/Indicator: TA100(NR), Metabolic Activation: RAT, LIVER, S-9, PCB, Method: PREINCUBATION): inactive; negative
mutagenic call (Test System: AMES SALMONELLA TYPHIMURIUM, Strain/Indicator: TA100, Metabolic Activation: NONE, Method: PREINCUBATION): inactive; negative
mutagenic call (Test System: AMES SALMONELLA TYPHIMURIUM, Strain/Indicator: TA100, Metabolic Activation: RAT, LIVER, S-9, PCB, Method: PREINCUBATION): inactive; negative
mutagenic call (Test System: AMES SALMONELLA TYPHIMURIUM, Strain/Indicator: YG1020, Metabolic Activation: NONE, Method: PREINCUBATION): inactive; negative
mutagenic call (Test System: AMES SALMONELLA TYPHIMURIUM, Strain/Indicator: YG1020, Metabolic Activation: RAT, LIVER, S-9, PCB, Method: PREINCUBATION): inactive; negative
mutagenic call (Test System: AMES SALMONELLA TYPHIMURIUM, Strain/Indicator: YG1021, Metabolic Activation: NONE, Method: PREINCUBATION): inactive; negative
mutagenic call (Test System: AMES SALMONELLA TYPHIMURIUM, Strain/Indicator: YG1021, Metabolic Activation: RAT, LIVER, S-9, PCB, Method: PREINCUBATION): active; positive
mutagenic call (Test System: AMES SALMONELLA TYPHIMURIUM, Strain/Indicator: YG1024, Metabolic Activation: NONE, Method: PREINCUBATION): active; positive
mutagenic call (Test System: AMES SALMONELLA TYPHIMURIUM, Strain/Indicator: YG1024, Metabolic Activation: RAT, LIVER, S-9, PCB, Method: PREINCUBATION): inactive; negative
mutagenic call (Test System: AMES SALMONELLA TYPHIMURIUM, Strain/Indicator: YG1025, Metabolic Activation: NONE, Method: PREINCUBATION): inactive; negative
mutagenic call (Test System: AMES SALMONELLA TYPHIMURIUM, Strain/Indicator: YG1025, Metabolic Activation: RAT, LIVER, S-9, PCB, Method: PREINCUBATION): inactive; negative
mutagenic call (Test System: AMES SALMONELLA TYPHIMURIUM, Strain/Indicator: YG1026, Metabolic Activation: NONE, Method: PREINCUBATION): inactive; negative
mutagenic call (Test System: AMES SALMONELLA TYPHIMURIUM, Strain/Indicator: YG1026, Metabolic Activation: RAT, LIVER, S-9, PCB, Method: PREINCUBATION): inactive; negative
mutagenic call (Test System: AMES SALMONELLA TYPHIMURIUM, Strain/Indicator: YG1029, Metabolic Activation: NONE, Method: PREINCUBATION): inactive; negative
mutagenic call (Test System: AMES SALMONELLA TYPHIMURIUM, Strain/Indicator: YG1029, Metabolic Activation: RAT, LIVER, S-9, PCB, Method: PREINCUBATION): inactive; negative

C[C@@]12CC[C@@H]3[C@@](CC[C@H]4[C@@]3(C)CCC[C@@]4(C)C(=O)O)(CC1=O)C2
mutagenic call (Test System: AMES SALMONELLA TYPHIMURIUM, Strain/Indicator: TM677, Metabolic Activation: RAT, LIVER, S-9, AROCLOR 1254, Method: PREINCUBATION): inactive; negative

c1ccc2cc3c(ccc4ccccc43)cc2c1
mutagenic call (Test System: AMES SALMONELLA TYPHIMURIUM, Strain/Indicator: TA98, Metabolic Activation: NONE, Method: STANDARD PLATE): inactive; negative
mutagenic call (Test System: AMES SALMONELLA TYPHIMURIUM, Strain/Indicator: TA98, Method: STANDARD PLATE): active; positive
mutagenic call (Test System: AMES SALMONELLA TYPHIMURIUM, Strain/Indicator: TA100, Metabolic Activation: NONE, Method: STANDARD PLATE): inactive; negative
mutagenic call [1]: active; positive
mutagenic call (Test System: AMES SALMONELLA TYPHIMURIUM, Strain/Indicator: TA100, Metabolic Activation: RAT, LIVER, S-9, 3-METHYLCHOLANTHRENE, Method: STANDARD PLATE): active; positive
mutagenic call (Test System: AMES SALMONELLA TYPHIMURIUM, Strain/Indicator: TA100, Metabolic Activation: RAT, LIVER, S-9, AROCLOR 1254, Method: STANDARD PLATE): active; positive
mutagenic call (Test System: AMES SALMONELLA TYPHIMURIUM, Strain/Indicator: TA100, Metabolic Activation: RAT, LIVER, S-9, PHENOBARBITAL, Method: STANDARD PLATE): inactive; negative
mutagenic call [2]: active; positive
mutagenic call (Test System: AMES SALMONELLA TYPHIMURIUM, Strain/Indicator: TA100, Metabolic Activation: RAT, SONICATED HEPATOCYTES, AROCLOR 1254, Method: PREINCUBATION): active; positive
mutagenic call (Test System: AMES SALMONELLA TYPHIMURIUM, Strain/Indicator: TA100, Method: STANDARD PLATE): active; positive
mutagenic call (Test System: AMES SALMONELLA TYPHIMURIUM, Strain/Indicator: TA1537, Metabolic Activation: MOUSE, LIVER, S-9, Method: STANDARD PLATE): active; positive
mutagenic call (Test System: AMES SALMONELLA TYPHIMURIUM, Strain/Indicator: TA1538, Metabolic Activation: NONE, Method: STANDARD PLATE): inactive; negative
mutagenic call (Test System: AMES SALMONELLA TYPHIMURIUM, Strain/Indicator: TA1538, Metabolic Activation: RAT, LIVER, S-9, AROCLOR 1254, Method: STANDARD PLATE): inactive; negative
mutagenic call (Test System: AMES SALMONELLA TYPHIMURIUM, Strain/Indicator: TA1538, Metabolic Activation: RAT, LIVER, S-9, PHENOBARBITAL, Method: STANDARD PLATE): active; positive
mutagenic call (Test System: CHINESE HAMSTER V-79, Strain/Indicator: V-79/6-THIOGUANINE, Metabolic Activation: RAT, LIVER, S-9, PHENOBARBITAL, Method: STANDARD PLATE): active; positive
mutagenic call (Test System: CHINESE HAMSTER V-79, Strain/Indicator: V-79/OUABAIN, Metabolic Activation: CELL-MEDIATED, Method: STANDARD PLATE): active; positive
mutagenic call (Test System: E. COLI, Strain/Indicator: WP2 UVRA, Metabolic Activation: HAMSTER, LIVER, S-9, AROCLOR 1254, Method: STANDARD PLATE): inactive; negative
mutagenic call (Test System: E. COLI, Strain/Indicator: WP2 UVRA, Metabolic Activation: HAMSTER, LIVER, S-9, Method: STANDARD PLATE): inactive; negative
mutagenic call (Test System: E. COLI, Strain/Indicator: WP2 UVRA, Metabolic Activation: MOUSE, LIVER, S-9, AROCLOR 1254, Method: STANDARD PLATE): inactive; negative
mutagenic call (Test System: E. COLI, Strain/Indicator: WP2 UVRA, Metabolic Activation: MOUSE, LIVER, S-9, Method: STANDARD PLATE): inactive; negative
mutagenic call (Test System: E. COLI, Strain/Indicator: WP2 UVRA, Metabolic Activation: NONE, Method: STANDARD PLATE): inactive; negative
mutagenic call (Test System: E. COLI, Strain/Indicator: WP2 UVRA, Metabolic Activation: RAT, LIVER, S-9, AROCLOR 1254, Method: STANDARD PLATE): inactive; negative
mutagenic call (Test System: E. COLI, Strain/Indicator: WP2 UVRA, Metabolic Activation: RAT, LIVER, S-9, Method: STANDARD PLATE): inactive; negative
mutagenic call (Test System: MOUSE LYMPHOMA, Strain/Indicator: L5178Y (TK+/TK-), Metabolic Activation: NONE, Method: SUSPENSION/PLATE): active; positive
mutagenic call (Test System: MOUSE LYMPHOMA, Strain/Indicator: L5178Y (TK+/TK-), Metabolic Activation: RAT, LIVER, S-9, AROCLOR 1254, Method: SUSPENSION/PLATE): active; positive
mutagenic call (Test System: MOUSE LYMPHOMA, Strain/Indicator: L5178Y (TK+/TK-), Metabolic Activation: RAT, LIVER, S-9, Method: SUSPENSION/PLATE): active; positive

O=[N+]([O-])c1ccc2c(c1)C(O)c1ccccc1-2 (stereo not given)
mutagenic call [3]: active; positive
mutagenic call (Test System: AMES SALMONELLA TYPHIMURIUM, Strain/Indicator: TA98, Metabolic Activation: S-9, Method: PREINCUBATION): active; positive
